Reference: ChEMBL document CHEMBL2073743, “HMG-CoA reductase inhibitors (statins) characterized as direct inhibitors of P-glycoprotein” (Pharm Res, 2001)

Key:
[1] = molecular target: T1, ATP-dependent translocase ABCB1 (Homo sapiens, UniProt P08183); test: TP_TRANSPORTER: inhibition of Rhodamine 123 transport in 3T3-G185 cells; assay type: functional, cell-based
[2] = molecular target: T1, ATP-dependent translocase ABCB1; test: TP_TRANSPORTER: inhibition of Daunorubicin transport in 3T3-G185 cells; assay type: functional, cell-based

T1 sequence (P08183 whole entry): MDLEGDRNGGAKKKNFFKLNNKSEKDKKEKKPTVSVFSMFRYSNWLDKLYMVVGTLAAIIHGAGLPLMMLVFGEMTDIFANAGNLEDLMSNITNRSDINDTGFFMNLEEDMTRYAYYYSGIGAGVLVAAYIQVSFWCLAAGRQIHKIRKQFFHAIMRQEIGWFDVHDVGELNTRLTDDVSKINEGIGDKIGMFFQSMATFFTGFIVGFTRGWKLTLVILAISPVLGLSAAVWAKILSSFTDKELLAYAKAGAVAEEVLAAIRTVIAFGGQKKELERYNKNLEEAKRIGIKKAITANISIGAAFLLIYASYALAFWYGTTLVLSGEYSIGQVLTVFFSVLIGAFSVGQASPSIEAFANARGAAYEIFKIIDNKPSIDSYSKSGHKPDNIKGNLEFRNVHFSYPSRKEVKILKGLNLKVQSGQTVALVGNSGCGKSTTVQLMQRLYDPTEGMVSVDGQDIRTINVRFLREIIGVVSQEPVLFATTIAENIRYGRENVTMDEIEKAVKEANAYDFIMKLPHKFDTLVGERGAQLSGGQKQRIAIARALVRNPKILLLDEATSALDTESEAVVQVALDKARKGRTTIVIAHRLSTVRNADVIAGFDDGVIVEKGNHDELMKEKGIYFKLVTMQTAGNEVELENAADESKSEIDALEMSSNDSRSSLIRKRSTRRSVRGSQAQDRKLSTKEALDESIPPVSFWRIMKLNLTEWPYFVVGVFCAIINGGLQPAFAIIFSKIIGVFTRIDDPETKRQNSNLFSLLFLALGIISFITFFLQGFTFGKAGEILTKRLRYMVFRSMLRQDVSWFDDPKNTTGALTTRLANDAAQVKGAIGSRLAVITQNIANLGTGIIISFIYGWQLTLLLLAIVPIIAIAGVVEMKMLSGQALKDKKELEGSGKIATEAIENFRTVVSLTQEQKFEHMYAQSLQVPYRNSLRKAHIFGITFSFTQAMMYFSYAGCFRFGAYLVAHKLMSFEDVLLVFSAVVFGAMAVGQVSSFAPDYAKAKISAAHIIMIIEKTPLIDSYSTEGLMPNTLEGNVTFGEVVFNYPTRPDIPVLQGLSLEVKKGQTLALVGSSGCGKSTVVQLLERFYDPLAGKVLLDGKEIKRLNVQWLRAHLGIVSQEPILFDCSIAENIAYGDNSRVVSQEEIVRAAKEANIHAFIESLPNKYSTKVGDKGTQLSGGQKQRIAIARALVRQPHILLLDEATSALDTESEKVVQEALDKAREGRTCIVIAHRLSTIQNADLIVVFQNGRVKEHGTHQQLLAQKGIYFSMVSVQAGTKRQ

IC50 [1]: 307 µM | IC50 [2]: 271 µM
Structure (SMILES): CC(C)c1c(C(=O)Nc2ccccc2)c(-c2ccccc2)c(-c2ccc(F)cc2)n1CC[C@@H](O)C[C@@H](O)CC(=O)O [ATORVASTATIN]
